Results taken from ChEMBL document CHEMBL1157539, “Thousands of chemical starting points for antimalarial lead identification” (Nature, 2010).

test system: Plasmodium falciparum; assay: GSK_TCMDC: Inhibition of Plasmodium falciparum 3D7 in whole erythrocytes, using parasite LDH activity as an index of growth.; format: functional, organism-based; details: Plasmodium falciparum, 3D7

SMILES	XC50
Cc1cc(N/N=C/c2ccccc2[N+](=O)[O-])c2ccccc2n1	776 nM
CC1CCCN(Cc2c(O)ccc3c(O)c(-c4nc5ccccc5s4)c(=N)oc23)C1 (stereo not given)	140 nM
COc1ccc(C2CCN(C#N)C2)cc1OC1CCCC1 (stereo not given)	228 nM
CCOc1ccc(NC(=O)c2cn3nc(-c4ccc(OCC)cc4)cc3nc2C2CCNCC2)cc1	515 nM
O=[N+]([O-])c1cccc(-c2nc3cc(C4=NC5CCCCC5N4)ccc3[nH]2)c1 (stereo not given)	195 nM
CC(C)c1ccc(NC(=O)N2CCc3ccc(OCCN(C(C)C)C(C)C)cc32)c(Br)c1	1090 nM
COc1cc(OC)cc(-c2nn(-c3ccc([N+](=O)[O-])cc3C#N)c(=S)n2Cc2ccco2)c1	577 nM
CC(=NNC(=N)N)C(=O)Nc1ccc(Cl)c(Cl)c1	166 nM
Cc1cccc2nc(-c3ccc(-c4ccc(NC(=O)NC5CC5c5ccccc5)cc4)cc3)[nH]c12 (stereo not given)	876 nM
O=C(/C=C/c1ccc(Cl)c(Cl)c1)N1CCC(CN2CCC(Cc3cc4ccccc4[nH]3)CC2)CC1	630 nM
COc1cccc(NC(=O)c2ccc(NCCCN3CCC(C)CC3)c([N+](=O)[O-])c2)c1	770 nM
CCCNc1ccc2nccc(CCN3CCC(NCc4ccc5c(n4)NC(=O)CS5)CC3)c2n1	720 nM
CN(C)CCOc1cccc(NC(=O)Nc2ccc(-c3ccccc3)cc2)c1	878 nM
CCCNCc1ccc(-c2ccc(CN(CCOC)C(=O)c3nn(-c4ccccc4)nc3C)cc2)nc1	725 nM
CCCCc1cc(NCC)nc(Nc2ccc(OC)cc2)n1	1180 nM
CCOc1ccc(/C=C/C(=O)Nc2cccc3c2CCN(C)C3)cc1	1110 nM
NC1=NC(Cc2ccccc2)N(c2ccc(Cl)cc2)C(N)=N1 (stereo not given)	137 nM
CC1(C)CCC(C)(C)c2c1ccc(C1CCN(CCCCNC(=O)c3ccc(-c4ccc(C#N)cc4)cc3)CC1)c2O	226 nM
CCN(CCCN1CCCCC1)c1cc(C)nc(Nc2cc(Cl)cc(Cl)c2)n1	286 nM
CC(=O)COc1c(C2CCN(CCCCNC(=O)c3ccc(-c4ccc(C(F)(F)F)cc4)cc3)CC2)ccc2c1CCCC2	784 nM
CCNCc1cccc(-c2ccc3ccnc(N)c3c2)c1	46.9 nM
COc1ccc2ccccc2c1C=NN=c1cc(C)[nH]c2c(C)cccc12	818 nM
CC(C)CCN(Cc1cncn1Cc1ccccc1F)C(=O)c1cncc(-c2ccccc2)c1	791 nM
CN(C)c1ccc(CN2CCCCC(NC(=O)c3cc(-c4ccccc4F)cs3)C2)cc1 (stereo not given)	826 nM
CCCC(C)Nc1nc(C)cc(N[C@@H](Cc2ccccc2)C(=O)NCCOc2ccccc2)n1 (stereo not given in full)	699 nM

SMILES	XC50
CC(C)CCNc1nc2ccccc2nc1Nc1cccc(C(F)(F)F)c1	905 nM
CCCCCCC(C)c1cc(O)c2c(c1)OC(C)(C)C=C2c1ccncc1 (stereo not given)	733 nM
Cn1ncc2c3c(CCN4CCC(NCc5cc6c(cn5)OCC6)CC4)c(Cl)cnc3ccc21	881 nM
OCc1c(Cl)cc(Cl)cc1CNCCCNc1nc2ccccc2[nH]1	745 nM
CC(=O)Nc1cccc(C(=O)Nc2cccc(-c3ccc(-c4nc5cc(F)ccc5[nH]4)s3)c2)c1	896 nM
O=C(/C=C/c1ccc(Cl)c(Cl)c1)NCCCCCCN1CCN(C(=O)Nc2ccc(C(F)(F)F)cc2)CC1	397 nM
N#CC(c1ccc(F)cc1)c1ccc2c(C(F)(F)F)cc(C(F)(F)F)nc2n1 (stereo not given)	726 nM
Oc1ccc2[nH]c(-c3cccc(F)c3)nc2c1CN1CCCC1	795 nM
Cc1cccc2nc(-c3cccc(-c4cccc(NC(=O)NC5CC5c5ccccc5)c4)c3)[nH]c12 (stereo not given)	705 nM
CCN(CCCN1CCCCC1)c1cc(C)nc(Nc2ccc(Br)cc2F)n1	548 nM
CN(C)CCCOc1ccc(CN2CCC(c3c[nH]c4ccc(NCC5CCCCC5)cc34)CC2)cc1	678 nM
CCn1cc(C=C2Oc3c(ccc(O)c3CN3CCCCC3)C2=O)c2ccccc21	281 nM
CCCOc1ccc(C=C(CC(=O)O)c2nc3ccccc3s2)cc1OCC	554 nM
COc1cc(NC(=O)c2ccc(-c3ccc(C(C)=O)cc3)s2)ccc1OCCN1CCCC1	147 nM
COc1cc2nccc(Nc3cccc(Oc4ccccc4)c3)c2cc1OC	643 nM
O=[N+]([O-])c1ccc(CNCCCCCCNCc2ccc([N+](=O)[O-])c3ccccc23)c2ccccc12	787 nM
COc1cccc(CNC(=O)c2cnc(N3CCN(c4ccncc4)CC3)c(Cl)c2)c1	1150 nM
COc1cc2ncnc(Nc3ccc4nc(Cc5ccccc5)[nH]c4c3)c2cc1OC	1480 nM
CCCCCCNC(=O)c1nn(CCN2CCC(N3CCCC3)CC2)cc1-c1ccc(Cl)c(Cl)c1	733 nM
CCOC(=O)c1ccc(OCCCCCCOc2ccc(Br)cc2)cc1	777 nM
O=C(Nc1cccc(CN2CCCN(Cc3ccc(O)cc3)CC2)c1)c1ccc(-c2ccccc2)cc1	342 nM
Cc1cccc2nc(-c3ccc(-c4ccc(CNCc5ccccc5)cc4)s3)[nH]c12	208 nM
CCC(C)C(COC(=O)c1cc(OC)c(OC)c(OC)c1)N(C)CCN(C)C(COC(=O)c1cc(OC)c(OC)c(OC)c1)C(C)CC (stereo not given)	947 nM
Cc1cccc2nc(-c3ccc(-c4ccc(CN5CCC(CO)CC5)cc4)s3)[nH]c12	812 nM
CCC(C)NS(=O)(=O)c1ccc2nc(Nc3ccc(C)cc3)n(C3CCCCC3C)c2c1 (stereo not given)	592 nM

SMILES	XC50
O=C(Nc1ccccc1F)N(CCCn1ccnc1)Cc1csc(-c2ccc(CNCc3ccccc3)cc2)n1	841 nM
COc1ccc2nccc([C@@H](O)CN3CCC(NCc4nc5cc(F)c(F)cc5[nH]4)CC3)c2c1	533 nM
CC(C)CCN1CCCN(Cc2ccc(C(=O)Nc3ccc(C(C)(C)C)cc3)cc2)CC1	867 nM
CCCCc1nc2nc(N)nc(N)c2cc1CCC	308 nM
O=C(Nc1ccc(Cl)cc1)Nc1cccc(-c2cccc(-c3nc4ccccc4[nH]3)c2)c1	131 nM
c1cc(CNCCc2ccncc2)cc(-c2csc(-c3nc4ccccc4[nH]3)c2)c1	258 nM
Cc1cc(CN2CC[C@H](NC(=O)c3ccc(Cl)c(Cl)c3)C2)ccc1OCCN1CCCC1	1160 nM
NC(=O)c1ccc(C(=O)Nc2cccc(-c3ccc(-c4nc5cc(C(F)(F)F)ccc5[nH]4)cc3)c2)cc1	514 nM
COc1cc2nc(N3CCN(c4nc(N)c5cc(OC)c(OC)cc5n4)CC3)nc(N)c2cc1OC	146 nM
COc1ccc2nccc([C@@H](O)CN3CCC(NCCc4c[nH]c5ccccc45)CC3)c2c1	210 nM
CC(=O)Nc1ccc(CN(Cc2ccc(F)cc2)Cc2ccc3c(c2)OCO3)cc1	943 nM
CC(C)NCC(O)Cn1c2ccc(Br)cc2c2cc(Br)ccc21 (stereo not given)	451 nM
CN1CCN(c2ccnc3ccc(NC(=O)Nc4ccc5c(c4)CCCC5=O)cc23)CC1	132 nM
CN(C)CCN(C)Cc1ccc(-c2ccc(NC(=O)c3ccc(Cl)cc3)cc2)cc1	943 nM
COc1cc2nccc(Nc3ccc4c(cnn4Cc4cccc(F)c4)c3)c2cc1OC	237 nM
c1ccc2c3c(ccc2c1)Sc1c(ccc2ccccc12)N3	1070 nM
COc1ccc(-c2nonc2NC(=O)c2ccc(OC(C)C)cc2)cc1OC	635 nM
CCCN(CCC)CCCNc1ccc(C(=O)Nc2ccc(OCC)cc2)cc1[N+](=O)[O-]	992 nM
COc1ccc(OCCn2cc(C(=O)c3ccco3)c3ccccc32)cc1	773 nM
COc1cc(CCNC(=N)/C=C/c2ccc(Cl)cc2)ccc1Cl	241 nM
Cc1cnc(C(=O)Nc2cccc(-c3cccc(-c4nc5cccc(C)c5[nH]4)c3)c2)cn1	579 nM
O=C1Nc2cccc3c2C1(CCCCCN1CC=C(c2c[nH]c4ccccc24)CC1)CCC3 (stereo not given)	740 nM
c1ccc2[nH]c(-c3ccc(-c4ccc(CN5CCN(CCN6CCOCC6)CC5)cc4)s3)nc2c1	280 nM
CCCCCCCCS(=O)(=O)NCCCC1CCN(CCCCCNC(=O)C=Cc2ccc(Cl)c(Cl)c2)CC1	858 nM
Cc1cc(C2CCCCN2C)ccc1-c1ccc(C(=O)N2CCc3cc4c(cc32)C2(CCN(C)CC2)CO4)cc1 (stereo not given)	791 nM

SMILES	XC50
O=C(/C=C/c1ccc(Cl)c(Cl)c1)NCCCCCN1CCCC(CNC(=O)c2sc3ccccc3c2Cl)C1 (stereo not given)	870 nM
N=C(NCCc1ccc(Cl)c(Cl)c1)c1ccc2ccccc2c1	514 nM
CC(Cc1ccc(OCCCCOc2ccccc2)cc1)NCCc1ccccc1Cl (stereo not given)	175 nM
CC(C)(CNC(=O)C1CCN(CCOCc2ccccc2)CC1)c1nc(-c2ccc(Cl)c(O)c2)c(-c2ccncc2)[nH]1	620 nM
O=C(O)CNCC(O)c1ccccc1 (stereo not given)	184 nM
Cc1nnsc1C(=O)Nc1cccc(-c2cccc(-c3nc4cc(C(F)(F)F)ccc4[nH]3)c2)c1	235 nM
CCCn1cnc2cc(C(=O)Nc3ccc(-c4cccc(CN(C)C)c4)cc3)ccc2c1=O	928 nM
COc1ccc(C2NCCc3c2[nH]c2ccccc32)cc1CN1CCN(c2ccc(F)cc2)CC1 (stereo not given)	776 nM
CS(=O)(=O)N1CC2(CCN(CCC(NC(=O)NCc3ccc(Cl)c(Cl)c3)c3ccc(Cl)c(Cl)c3)CC2)c2ccccc21 (stereo not given)	799 nM
CN(C)CCc1c[nH]c2ccc(C(=O)Nc3ccc(-c4ccncc4)cc3)cc12	567 nM
CCc1nnc2sc(-c3cccc(NC(=O)c4ccc(OC)c(Cl)c4)c3)nn12	1140 nM
CC(=O)Nc1ccc(C(=O)Nc2cccc(-c3ccc(-c4nc5cc(C(F)(F)F)ccc5[nH]4)s3)c2)cn1	126 nM
CCOc1cc(-c2nnc3[nH]c(=O)n(C)c(=O)c3n2)ccc1OC(C)C	400 nM
FC(F)(F)c1cccc(CNCCCCCNCc2ccc(Cl)cc2)c1	1030 nM
CCc1ccc(CN2CCC(CNC(=O)c3cc(-c4ccccc4Cl)cs3)C2)cc1 (stereo not given)	1430 nM
CCOC(=O)C(=O)N1c2ccc(OCC)cc2-c2c(ssc2=S)C1(C)C	216 nM
COC(=O)c1cccc(NC(=O)NC2CCN(c3ccnc(Nc4ccc(F)cc4)n3)C2)c1 (stereo not given)	500 nM
CC(Cc1ccc(SC(C)C)cc1)NCC(O)c1cccc(Cl)c1 (stereo not given)	827 nM
COc1ccccc1C1CN(CCNC(=O)c2nc(C)c[nH]2)Cc2ccccc2O1 (stereo not given)	797 nM
Cc1cccc2nc(-c3ccc(-c4ccc(NC(=O)c5cncn5C)cc4)s3)[nH]c12	670 nM
O=C(Nc1cccc(CN2CCCN(Cc3ccccc3)CC2)c1)c1ccc(-c2ccccc2)cc1	1300 nM
CCCCCCNC(=O)C1Cc2c([nH]c3ccc(F)cc23)C2(CCN(Cc3ccccc3)CC2)N1 (stereo not given)	871 nM
CN(c1ccccc1C(=O)Nc1ccccc1Oc1ccccc1)S(=O)(=O)c1ccccc1	1150 nM
Cc1cc(NC(=O)Nc2ccc(I)c(OCCN(C)C)c2)ccc1Br	625 nM
Cc1ccc(N2CCc3c(-c4cc5cccnc5nc4C)cc(C)nc32)c(Cl)c1	577 nM
